According to publication PMC10610214 (Pharmaceuticals, 2023):

What was measured:
[1] = DPPH radical scavenging; type: physicochemical; details: vs no-compound group
Experimental: DPPH is a commercially available stable organic nitrogen radical with maximum UV absorption at 515 nm. After reduction, the color of the solution fades (absorbance decreases). Therefore, this method was used to evaluate the antioxidant capacity of the compounds. In short, 50 μL of DPPH (140 μM) and 50 μL of different concentrations (10, 100, and 1000 μM) of compound 4h were added together in a 96-well plate and then incubated in the dark at 37 °C for 2 h. The absorbance was measured at 515 nm through the multifunctional microplate reader. The scavenging rate (SR) of DPPH radicals was calculated by the following formula: SR = (1 − Ac/A0) × 100%, where “Ac” is the absorbance of DPPH and the compound solution incubating, and “A0” is the absorbance of the DPPH radical-ethanol solution alone. The experimental results are expressed as the average of three tests.

[2] = tested on: SY5Y cells; test: H2O2-induced intracellular ROS in SY5Y cells (DCFH-DA); type: cell-based; details: 100 μM, vs untreated control 100, H2O2 group 151.76
Experimental: A 2’, 7’-dichlorofluorescein diacetate (DCFH-DA, Sigma Aldrich) probe was applied to determine intracellular ROS production. It can penetrate cells and be rapidly oxidized by intracellular ROS to highly fluorescent 2′,7′-dichlorofluorescein (DCF). Intracellular fluorescence intensity is proportional to intracellular ROS levels. PC12 cells or SY5Y cells were seeded into a black 96-well plate at a density of 1.0 × 10^4 cells per well. After the cells were incubated overnight, the old medium was discarded. PC12 cells or SY5Y cells were cultured in a medium containing test compound 4h with or without various concentrations (1, 7.5, 15, 30, and 50 μM) for 6 h. […] Then, they were washed again with PBS, then DCFH-DA […] probe was added to each well and incubated at 37 °C for 1 h. After the cells were washed 3 times, the fluorescence intensity was measured in a Synergy HTX fluorescence microplate reader (λex = 485 nm, λem = 528 nm).

[3] = molecular target: Aβ1-42 (Homo sapiens, UniProt P05067); test: Self-induced Aβ1-42 aggregation, thioflavin T fluorescence; type: biochemical; design: final concentrations of 20 μM of Aβ1-42 and 100 μM of test compound; purchased Beyotime Institute of Biotechnology; details: read-out: Inhibition of Self-Induced Aβ Aggregation (%)
Experimental: The inhibitory effect of compounds on Aβ42 was determined by Thioflavin T (ThT) fluorescence assay. In short, the dilution of Aβ42 solution (Beyotime Biotechnology, Hang Zhou, China) and test compounds was carried out with phosphate buffer (50 mM, pH 7.4) to obtain final concentrations of 20 μM of Aβ1-42 and 100 μM of test compound, such as curcumin (20 μM). The mixture was incubated in 96-well plates at room temperature for 48 h in the dark. When the incubation was complete, the samples were diluted to 200 µL (final volume) with glycine–NaOH buffer (50 mM, pH 8.0) containing 5 μM ThT.

[4] = molecular target: T1, BuChE (Equus caballus, UniProt P81908); test: Reversibility of BuChE inhibition, dilution method; type: biochemical; details: control 100
T1 construct: BuChE (from equine serum); purchased Sigma Chemical Company (St. Louis, MO, USA); host or cells: equine serum
Experimental: The activities of the diluted residual enzymes were measured by Ellman’s modified method.
Reversibility studies were performed using a modified Ellman’s dilution method to measure the activity of the diluted residual enzyme. The AChE/BuChE (0.5 U/mL), ATCI/BTCI (0.01 M) and DTNB (0.01 M) were diluted with phosphate buffer pH = 7.4. […] At the end of incubation, 20 μL of DTNB solution was added to them. […] All the measured results are expressed as the mean ± SEM of the three independent experiments.

[5] = molecular target: T2, AChE (from electric eel) (Electrophorus electricus, UniProt O42275); test: biochemical; details: for IC50: AChE from electric eel, mean ± SD of three experiments, read-out: AChE Inhibition (IC50); for Selective Index, IC50 (BChE)/IC50 (AChE): AChE selectivity index
T2 construct: AChE (from electric eel); purchased Sigma Chemical Company (St. Louis, MO, USA)
Experimental: (§1) The ChE inhibitory activity of the test compounds was determined using the modified Ellman’s method. The compounds were dissolved in DMSO (10 mmol/L) and then diluted with PB (phosphate buffer) solution to attain a range of final concentrations. […] Briefly, 100 μL of different concentrations of the test or standard compounds and 100 μL of AChE/BuChE (0.5 U/mL) were added into 48-well plates and then co-incubated at 37 °C for 30 min. […] All concentrations mentioned are final.

[6] = molecular target: T3, BuChE (from equine serum) (Equus caballus, UniProt P81908); test: biochemical; details: mean ± SD of three experiments, read-out: BuChE Inhibition (IC50)
T3 construct: BuChE (from equine serum); purchased Sigma Chemical Company (St. Louis, MO, USA); host or cells: equine serum
Experimental: as §1

[7] = tested on: H2O2-induced PC12 cells; test: Neuroprotection against H2O2-induced PC12 cell injury (MTT); type: cell-based; details: H2O2 250 μM, mean ± SEM
Experimental: Neuroprotection assay is similar to cytotoxicity. Oxidative cellular damage caused by H2O2 has become one of the important methods to study oxidative damage in neural cells. PC12 cells were seeded into a 96-well plate at a density of 5.0 × 10^3 cells per well. After the cells were incubated overnight, the old medium was discarded. […] After incubating overnight, 20 μL of MTT solution (5 mg/mL, Sigma-Aldrich) was added per well, and the cells were incubated for an additional 4 h. Afterwards, the supernatant was removed and 150 μL of DMSO was added. The 96-well plate was placed on the shaker for 10–15 min, and then the absorbance at 492 nm was measured by a microplate reader.

[8] = tested on: PC12 cells; test: Cytotoxicity in PC12 cells (MTT); type: cell-based
Experimental: The cytotoxicity and neuroprotective effects of the compounds on PC12 cells were evaluated by MTT assay. PC12 cells were seeded into a 96-well plate at a density of 5.0 × 10^3 cells per well. After the cells were incubated overnight, the old medium was discarded. The cells were incubated for another 24 h with fresh medium containing compounds at a concentration of 30 or 50 μM. A total of 20 μL of MTT solution (5 mg/mL, Sigma-Aldrich, Shanghai, China) was then added per well, and the cells were incubated for an additional 4 h. Afterwards, the supernatant was removed and 150 μL of DMSO was added to solubilize formazan crystals. The 96-well plate was placed on the shaker for 10–15 min, and then the absorbance at 492 nm was measured by a microplate reader.

[9] = in vitro; type: in vitro ADME, SD rats; details: SD rat liver microsomes
Experimental: The incubation was terminated at different time points by adding 0.5 mL of ice-cold CH3CN. A parallel incubation was performed in the absence of a NADPH-regenerating system with microsomes as the negative control, and the reactions were terminated after the corresponding time incubation. After centrifugation with 12,500 rpm at 4 °C for 10 min, the supernatant was directly analyzed by the HPLC UV systems (Agilent HPLC 1200 instrument). Three independent experiments were performed in triplicate.

[10] = tested on: adjuvant-induced arthritis (AIA) rats; design: method as in PMID 36450214; details: cited from earlier work

T3 sequence (P81908 whole entry): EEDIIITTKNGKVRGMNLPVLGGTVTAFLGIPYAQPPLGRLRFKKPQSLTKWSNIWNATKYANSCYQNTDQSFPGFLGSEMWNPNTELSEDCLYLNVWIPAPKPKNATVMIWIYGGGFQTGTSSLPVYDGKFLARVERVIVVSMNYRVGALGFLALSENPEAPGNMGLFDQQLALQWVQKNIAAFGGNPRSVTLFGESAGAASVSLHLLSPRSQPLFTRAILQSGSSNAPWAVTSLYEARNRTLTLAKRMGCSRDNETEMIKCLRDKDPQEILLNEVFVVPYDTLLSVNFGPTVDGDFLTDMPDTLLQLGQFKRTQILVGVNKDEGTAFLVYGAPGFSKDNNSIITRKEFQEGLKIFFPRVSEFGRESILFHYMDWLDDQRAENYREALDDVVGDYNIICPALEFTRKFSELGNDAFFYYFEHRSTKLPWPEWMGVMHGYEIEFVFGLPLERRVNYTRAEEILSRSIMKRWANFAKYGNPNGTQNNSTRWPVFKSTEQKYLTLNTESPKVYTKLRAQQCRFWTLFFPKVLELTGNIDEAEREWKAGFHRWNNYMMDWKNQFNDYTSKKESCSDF
T2 sequence (O42275 24-633): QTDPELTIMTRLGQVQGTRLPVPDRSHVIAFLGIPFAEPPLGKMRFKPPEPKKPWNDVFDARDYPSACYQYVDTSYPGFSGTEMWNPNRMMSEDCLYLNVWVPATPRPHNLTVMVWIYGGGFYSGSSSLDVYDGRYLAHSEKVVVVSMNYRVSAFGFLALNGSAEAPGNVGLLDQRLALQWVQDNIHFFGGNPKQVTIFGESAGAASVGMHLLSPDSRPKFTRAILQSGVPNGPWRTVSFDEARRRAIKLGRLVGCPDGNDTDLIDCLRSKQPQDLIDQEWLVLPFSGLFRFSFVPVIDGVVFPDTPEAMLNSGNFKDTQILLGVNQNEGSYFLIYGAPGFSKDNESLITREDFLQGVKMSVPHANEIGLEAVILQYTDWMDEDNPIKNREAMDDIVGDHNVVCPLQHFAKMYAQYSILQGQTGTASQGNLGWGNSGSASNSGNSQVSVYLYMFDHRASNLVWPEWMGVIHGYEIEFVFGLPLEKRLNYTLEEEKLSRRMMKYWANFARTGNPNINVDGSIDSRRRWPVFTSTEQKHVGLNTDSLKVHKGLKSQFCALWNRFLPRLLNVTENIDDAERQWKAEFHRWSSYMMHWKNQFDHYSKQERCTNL
Chain of Aβ1-42 (P05067 672-713 limits assumed): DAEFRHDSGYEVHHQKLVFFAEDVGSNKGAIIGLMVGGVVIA
T1 sequence (P81908 whole entry): as the sequence (P81908 whole entry) above

Structure (SMILES)	IC50 [5]	IC50 [6]	H2O2-Induced PC12 Cell Viability (% of Control) ([7]; compound 10 μM)	H2O2-Induced PC12 Cell Viability (% of Control) ([7]; compound 30 μM)	Cell Viability (% of Control) ([8]; compound 30 μM)	Cell Viability (% of Control) ([8]; compound 50 μM)	also measured
O=C1O[C@H]([C@@H](O)CO)C(O)=C1O [AA, Ascorbic acid, reference compound]							Concentration of DPPH (%) ([1]; 10 μM compound): 77.43 ± 2.76%; Concentration of DPPH (%) ([1]; 100 μM compound): 58.10 ± 3.42%; Concentration of DPPH (%) ([1]; 1000 μM compound): 24.2 ± 1.85%
Cc1c(C)c2c(c(C)c1O)CCC(C)(C(=O)O)O2 (stereo not shown) [Trolox]							ROS in SY5Y cells (%) [2]: 126.06 ± 2.68%
COc1cc(/C=C/C(=O)CC(=O)/C=C/c2ccc(O)c(OC)c2)ccc1O [Curcumin]							inhibition at 20 µM ([3]; curcumin 20 μM (text b32), ThT, 48 h): 55.4 ± 2.31%
COc1cc2c(cc1OC)C(=O)C(CC1CCN(Cc3ccccc3)CC1)C2 (stereo not shown) [Donepezil, reference compound]							BuChE activity after dilution (reversibility) ([4]; final inhibitor 0.1 × IC50 after 100-fold dilution): 94.1 ± 0.61; BuChE activity after dilution (reversibility) ([4]; final inhibitor 1 × IC50 after 100-fold dilution): 89.4 ± 1.49; inhibition at 100 µM [3]: 41.2 ± 1.87%
CC(C)(C)c1ccc(S(=O)(=O)Nc2ccc3nc4n(c(=O)c3c2)-c2ccccc2C4=O)cc1 [8c]	15.8 ± 2.6 µM	> 50 µM	39.10 ± 4.5 % of Control	49.64 ± 4.1 % of Control	98.4 ± 1.9 % of Control	96.7 ± 1.9 % of Control	
O=C1c2cc(NS(=O)(=O)c3ccccc3OC(F)(F)F)ccc2-n2c1nc1ccccc1c2=O [4n]	5.92 ± 0.56 µM	4.93 ± 0.35 µM	46.53 ± 1.2 % of Control	52.84 ± 1.8 % of Control	99.9 ± 0.7 % of Control	99.7 ± 1.8 % of Control	
C[C@]12CC[C@H]3[C@@H](CCC4=CC(=O)CC[C@@]43C)[C@@H]1CC[C@@H]2O [Testosterone, reference compound]							K [9]: 0.2593 ± 0.04409 min⁻¹; T1/2 [9]: 2.4 ± 0.5 min
O=C1c2ccccc2-n2c1nc1ccc(NS(=O)(=O)c3ccc(OC(F)(F)F)cc3)cc1c2=O [8m]	> 50 µM	> 50 µM	44.67 ± 2.3 % of Control	53.92 ± 3.9 % of Control	99.5 ± 3.1 % of Control	98.2 ± 1.7 % of Control	
O=C1c2ccccc2-n2c1nc1ccc(NS(=O)(=O)c3ccc(F)cc3)cc1c2=O [8f]	43 ± 1.12 µM	> 50 µM	34.24 ± 3.5 % of Control	42.25 ± 1.7 % of Control	99.4 ± 1.7 % of Control	98.3 ± 3.0 % of Control	
O=C1c2cc(NS(=O)(=O)c3cccc(F)c3)ccc2-n2c1nc1ccccc1c2=O [4g]	3.21 ± 0.39 µM	21.6 ± 1.79 µM	59.88 ± 0.9 % of Control	68.83 ± 2.7 % of Control	100 ± 1.3 % of Control	99.7 ± 0.8 % of Control	Selective Index, IC50 (BChE)/IC50 (AChE) [5]: 6.7
O=C1c2cc(NS(=O)(=O)c3ccccc3)ccc2-n2c1nc1ccccc1c2=O [4a]	0.97 ± 0.16 µM	9.98 ± 0.64 µM	43.29 ± 3.1 % of Control	48.5 ± 1.5 % of Control	99.5 ± 1.7 % of Control	98.3 ± 3.0 % of Control	Selective Index, IC50 (BChE)/IC50 (AChE) [5]: 10.3
O=C1c2ccccc2-n2c1nc1ccc(NS(=O)(=O)c3ccccc3OC(F)(F)F)cc1c2=O [8n]	42 ± 1.7 µM	> 50 µM	38.94 ± 1.5 % of Control	49.96 ± 0.8 % of Control	99.2 ± 1.9 % of Control	98.3 ± 2.7 % of Control	
COc1ccc(S(=O)(=O)Nc2ccc3c(c2)C(=O)c2nc4ccccc4c(=O)n2-3)cc1OC [4k]	25.4 ± 1.53 µM	> 50 µM	44.35 ± 1.5 % of Control	46.23 ± 0.6 % of Control	98.8 ± 1.9 % of Control	98.2 ± 3.4 % of Control	
COc1ccc(S(=O)(=O)Nc2ccc3nc4n(c(=O)c3c2)-c2ccccc2C4=O)cc1 [8j]	> 50 µM	10.2 ± 2.41 µM	38.02 ± 3.1 % of Control	47.36 ± 6.1 % of Control	99.9 ± 1.5 % of Control	98.9 ± 2.1 % of Control	Anti-inflammatory activity in the AIA model [10]: exhibited good anti-inflammatory activity in the AIA model
O=C1c2ccccc2-n2c1nc1ccc(NS(=O)(=O)c3ccc(Br)cc3)cc1c2=O [8e]	> 50 µM	> 50 µM	41.78 ± 1.2 % of Control	55.86 ± 0.9 % of Control	99.8 ± 0.7 % of Control	99.7 ± 3.1 % of Control	
